Assay results reported in article PMC4156793 (Vascular Cell, 2014).
Marks after values point to notes of the source that are not given here. Blank lines part the entries; values can stand above or below the compound they belong to.

Experiments:
HUVECs [1] = test: VEGF-induced proliferation of HUVECs; format: cell-based; details: Homo sapiens, HUVEC, 72 h; VEGF 20 ng/mL, 3 days, WST-1
Experimental: (§1) Tumor cells were plated at 1 to 2 × 10^3 cells/well on 96-well plates in 0.1 ml of RPMI 1640 containing 10% FBS. […] The HUVEC proliferation assay were performed by a method described previously. […] After incubation for 3 days, cell viability was determined by measuring the absorbance of WST-1 reagent (DOJINDO, Kumamoto, Japan). Percent inhibition of cell growth was determined by the formula below: Inhibition (%) = Mean value of OD of control wells - OD of treated wells * 100/Mean value of OD of control wells. Each value is expressed as the mean. […] All experiments were done in either duplicate or quadruplicate.

[2] = test system: DU145 (Prostate) xenograft; test: Subcutaneous xenograft model, DU145; format: in vivo, mouse
Experimental: (§2) Tumor cells were injected subcutaneously into the right flank region of 7-week-old nude mice. […] Tumor diameters were measured with a vernier caliper and body weight was measured twice weekly. The tumor volume (mm^3) was calculated using the formula: length (mm) × width (mm)^2 × 1/2. […] When the tumor volume was reduced, the ΔT/C values were calculated by the following formula: ΔT/C (%) = (TVn - TV1)/TV1 × 100, where TVn is the tumor volume of treated mice at day n. The number of mice is ten for control group in Table 1 and five for each group in other experiments. Mice in control group were treated with vehicle.

DU145 (Prostate) = test: Tumor cell proliferation assay (MTT), DU145; format: cell-based; details: Homo sapiens, DU-145, read-out: IC50 in vitro anti-proliferative activity
Experimental: (§3) Tumor cells were plated at 1 to 2 × 10^3 cells/well on 96-well plates in 0.1 ml of RPMI 1640 containing 10% FBS. […] The HUVEC proliferation assay were performed by a method described previously. […] Percent inhibition of cell growth was determined by the formula below: Inhibition (%) = Mean value of OD of control wells - OD of treated wells * 100/Mean value of OD of control wells. Each value is expressed as the mean. […] All experiments were done in either duplicate or quadruplicate.

KP-1/VEGF transfectants = test: In vitro growth of KP-1/VEGF transfectants; format: cell-based; details: Homo sapiens
Experimental: as §1

MDA-MB 435 (Melanoma) = test: Tumor cell proliferation assay (MTT), MDA-MB 435; format: cell-based; details: Homo sapiens, read-out: IC50 in vitro anti-proliferative activity
Experimental: as §3

[3] = test system: SK-OV-3 (Ovary) xenograft; test: Subcutaneous xenograft model, SK-OV-3; format: in vivo, mouse; details: SK-OV-3 xenograft
Experimental: as §2

A431 (Epidermoid) = test: Tumor cell proliferation assay (MTT), A431; format: cell-based; details: Homo sapiens, A-431, read-out: IC50 in vitro anti-proliferative activity
Experimental: as §3

[4] = test system: MDA-MB 435 (Melanoma) xenograft; test: Subcutaneous xenograft model, MDA-MB 435; format: in vivo, mouse; details: MDA-MB 435 xenograft
Experimental: as §2

[5] = test system: A431 (Epidermoid) xenograft; test: Subcutaneous xenograft model, A431; format: in vivo, mouse
Experimental: as §2

VEGFR3 (FLT4) = target: T1, VEGFR3 (FLT4) (Homo sapiens, UniProt P35916); test: In vitro kinase assay VEGFR3 (FLT4); format: biochemical
T1 construct: purchased Carna Biosciences, Inc. (Kobe, Japan)
Experimental: (§4) Tyrosine kinase assays were performed by an ELISA and Off-chip Mobility Shift Assay (MSA) by Carna Biosciences, Inc. (Kobe, Japan).

H460 (Lung) xenograft = test: Subcutaneous xenograft model, H460; format: in vivo, mouse
Experimental: as §2

[6] = test system: MIApaca-II (Pancreas) xenograft; test: Subcutaneous xenograft model, MIApaca-II; format: in vivo, mouse
Experimental: as §2

Colo205 (Colon) = test: Tumor cell proliferation assay (MTT), Colo205; format: cell-based; details: Homo sapiens, COLO 205, read-out: IC50 in vitro anti-proliferative activity
Experimental: as §3

VEGFR1 (FLT1) = target: T2, VEGFR1 (FLT1) (Homo sapiens, UniProt P17948); test: In vitro kinase assay VEGFR1 (FLT1); format: biochemical
T2 construct: purchased Carna Biosciences, Inc. (Kobe, Japan)
Experimental: as §4

MIApaca-II (Pancreas) = test: Tumor cell proliferation assay (MTT), MIApaca-II; format: cell-based; details: Homo sapiens, read-out: IC50 in vitro anti-proliferative activity
Experimental: as §3

FGFR1 = target: T3, FGFR1 (Homo sapiens, UniProt P11362); test: In vitro kinase assay FGFR1; format: biochemical
T3 construct: purchased Carna Biosciences, Inc. (Kobe, Japan)
Experimental: as §4

HUVECs [7] = test: VEGF-induced sandwich tube formation (sTF) of HUVECs; format: cell-based; details: Homo sapiens, HUVEC, 96 h; sTF assay, EGF 10 ng/mL with VEGF 20 ng/mL, 4 days
Experimental: (§5) In vitro sandwich tube formation (sTF) assay, HUVECs in SFM containing EGF (10 ng/mL) with VEGF (20 ng/mL) or FGF2 (20 ng/ml) were plated onto the 1st layer of collagen gel (Nitta Gelatin, Tokyo, Japan) at 1.0 × 10^5 cells in 24-well plates and a 2nd layer of collagen gel was added onto the HUVECs. […] After 4 days, MTT solution was added and photomicrographs of tube formation were taken with a light microscope. The tube length of capillaries was measured using image analysis (Angiogenesis Image Analyzer, ver. 1.04; Kurabo, Osaka, Japan).

[8] = test system: Colo205 (Colon) xenograft; test: Subcutaneous xenograft model, Colo205; format: in vivo, mouse
Experimental: as §2

SEKI model = test: Subcutaneous xenograft model, SEKI; format: in vivo, mouse; details: 100 mg/kg orally twice daily for 7 days
Experimental: as §2
Each group consisted of 5 mice. […] The relationship between the antitumor activity and MVD is shown in (B), and that between the antitumor activity and the % of pericyte coverage of vessels is shown in (C). Each symbol (○) indicates the mean of MVD or pericyte coverage in each tumor xenograft model. (D) Vascular score in the lenvatinib-sensitive and –relatively resistant groups. The vascular score was the sum of the MVD and pericyte coverage scores.

SK-OV-3 (Ovary) = test: Tumor cell proliferation assay (MTT), SK-OV-3; format: cell-based; details: Homo sapiens, read-out: IC50 in vitro anti-proliferative activity
Experimental: as §3

H460 (Lung) = test: Tumor cell proliferation assay (MTT), H460; format: cell-based; details: Homo sapiens, NCI-H460; read-out: IC50 in vitro anti-proliferative activity
Experimental: as §3

KIT = target: T4, KIT (Homo sapiens, UniProt P10721); test: In vitro kinase assay KIT; format: biochemical
T4 construct: purchased Carna Biosciences, Inc. (Kobe, Japan)

HUVECs [9] = test: FGF-2 induced sandwich tube formation (sTF) of HUVECs; format: cell-based; details: Homo sapiens, HUVEC, 96 h; sTF assay, EGF 10 ng/mL with FGF2 20 ng/ml, 4 days
Experimental: as §5

FGFR3 = target: T5, FGFR3 (Homo sapiens, UniProt P22607); test: In vitro kinase assay FGFR3; format: biochemical
T5 construct: purchased Carna Biosciences, Inc. (Kobe, Japan)
Experimental: as §4

HUVECs [10] = test: FGF-2 induced proliferation of HUVECs; format: cell-based; details: Homo sapiens, HUVEC, 72 h; FGF2 20 ng/mL, 3 days, WST-1
Experimental: as §1

FGFR2 = target: T6, FGFR2 (Homo sapiens, UniProt P21802); test: In vitro kinase assay FGFR2; format: biochemical
T6 construct: purchased Carna Biosciences, Inc. (Kobe, Japan)
Experimental: as §4

[11] = Tolerability in tumor-bearing nude mice; format: in vivo
Experimental: as §2

[12] = test system: FGF-driven in vivo angiogenesis (KP-1/FGF transfectants); test: Mouse dorsal air sac (DAS) assay, KP-1/FGF; details: 100 mg/kg, orally once daily for 4 days
Experimental: (§6) An in vivo angiogenesis assay in mice was performed as described previously with minor changes. Millipore chambers (Millipore, Bedford, MA) were packed with 1.0 × 10^7 KP-1 mock, KP-1/VEGF or KP-1/FGF transfectants and transplanted into the dorsal air sac of C57BL/6 mice (n = 3–5 each, with experiments performed in triplicate). For a pseudo-operation, collagen I gel was injected into the Millipore chambers. Photographs were taken 4 days after implantation.
(§7) (A) In vivo angiogenesis in mouse DAS assay. Angiogenesis was induced by overexpressed human VEGF121 (KP-1/VEGF) or mouse FGF4 (KP-1/FGF) in human pancreatic cancer KP-1 cells at the mouse dorsal skin. Representative photographs are shown. […] Compounds were administered orally once daily for 4 days at the indicated doses. Data are the mean ± std. *: p < 0.05 and **: p < 0.01 compared to vehicle.

[13] = test system: FGFR-driven proliferation; details: read-out: IC50, FGFR-driven proliferation in cell assays; cited from earlier work
[14] = test system: VEGF-driven in vivo angiogenesis (KP-1/VEGF transfectants); test: Mouse dorsal air sac (DAS) assay, KP-1/VEGF; details: 100 and 300 mg/kg, orally once daily for 4 days
Experimental: as §6, §7

[15] = 1 mg/kg orally twice daily for 28 days
[16] = 3 mg/kg orally twice daily for 28 days
[17] = 10 mg/kg orally twice daily for 28 days
[18] = 30 mg/kg orally twice daily for 28 days
[19] = 100 mg/kg orally twice daily for 28 days
[20] = 1 mg/kg orally twice daily for 14 days
[21] = 3 mg/kg orally twice daily for 14 days
[22] = 10 mg/kg orally twice daily for 14 days
[23] = 30 mg/kg orally twice daily for 14 days
[24] = 100 mg/kg orally twice daily for 14 days

T5 sequence (P22607 23-806): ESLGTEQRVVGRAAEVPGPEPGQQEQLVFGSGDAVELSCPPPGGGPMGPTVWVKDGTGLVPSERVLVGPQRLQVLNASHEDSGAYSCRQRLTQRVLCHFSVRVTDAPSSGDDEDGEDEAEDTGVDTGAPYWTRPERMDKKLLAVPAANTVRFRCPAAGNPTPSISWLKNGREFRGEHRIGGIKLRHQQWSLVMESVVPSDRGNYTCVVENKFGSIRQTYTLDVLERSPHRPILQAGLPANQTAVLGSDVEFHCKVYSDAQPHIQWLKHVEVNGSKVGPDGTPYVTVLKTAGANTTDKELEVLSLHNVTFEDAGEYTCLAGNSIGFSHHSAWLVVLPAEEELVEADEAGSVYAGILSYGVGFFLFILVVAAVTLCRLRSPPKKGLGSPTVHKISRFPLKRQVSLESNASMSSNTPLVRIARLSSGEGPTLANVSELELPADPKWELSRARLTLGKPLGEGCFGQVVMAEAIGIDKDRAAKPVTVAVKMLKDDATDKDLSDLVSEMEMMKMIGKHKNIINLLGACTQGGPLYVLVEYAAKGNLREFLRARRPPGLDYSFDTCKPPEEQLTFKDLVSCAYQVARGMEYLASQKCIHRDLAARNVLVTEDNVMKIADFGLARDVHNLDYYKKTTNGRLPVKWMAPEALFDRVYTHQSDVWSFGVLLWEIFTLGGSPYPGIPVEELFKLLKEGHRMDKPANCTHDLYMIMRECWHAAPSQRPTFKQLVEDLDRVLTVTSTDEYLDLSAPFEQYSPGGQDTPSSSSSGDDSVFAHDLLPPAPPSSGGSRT
T1 sequence (P35916 25-1363): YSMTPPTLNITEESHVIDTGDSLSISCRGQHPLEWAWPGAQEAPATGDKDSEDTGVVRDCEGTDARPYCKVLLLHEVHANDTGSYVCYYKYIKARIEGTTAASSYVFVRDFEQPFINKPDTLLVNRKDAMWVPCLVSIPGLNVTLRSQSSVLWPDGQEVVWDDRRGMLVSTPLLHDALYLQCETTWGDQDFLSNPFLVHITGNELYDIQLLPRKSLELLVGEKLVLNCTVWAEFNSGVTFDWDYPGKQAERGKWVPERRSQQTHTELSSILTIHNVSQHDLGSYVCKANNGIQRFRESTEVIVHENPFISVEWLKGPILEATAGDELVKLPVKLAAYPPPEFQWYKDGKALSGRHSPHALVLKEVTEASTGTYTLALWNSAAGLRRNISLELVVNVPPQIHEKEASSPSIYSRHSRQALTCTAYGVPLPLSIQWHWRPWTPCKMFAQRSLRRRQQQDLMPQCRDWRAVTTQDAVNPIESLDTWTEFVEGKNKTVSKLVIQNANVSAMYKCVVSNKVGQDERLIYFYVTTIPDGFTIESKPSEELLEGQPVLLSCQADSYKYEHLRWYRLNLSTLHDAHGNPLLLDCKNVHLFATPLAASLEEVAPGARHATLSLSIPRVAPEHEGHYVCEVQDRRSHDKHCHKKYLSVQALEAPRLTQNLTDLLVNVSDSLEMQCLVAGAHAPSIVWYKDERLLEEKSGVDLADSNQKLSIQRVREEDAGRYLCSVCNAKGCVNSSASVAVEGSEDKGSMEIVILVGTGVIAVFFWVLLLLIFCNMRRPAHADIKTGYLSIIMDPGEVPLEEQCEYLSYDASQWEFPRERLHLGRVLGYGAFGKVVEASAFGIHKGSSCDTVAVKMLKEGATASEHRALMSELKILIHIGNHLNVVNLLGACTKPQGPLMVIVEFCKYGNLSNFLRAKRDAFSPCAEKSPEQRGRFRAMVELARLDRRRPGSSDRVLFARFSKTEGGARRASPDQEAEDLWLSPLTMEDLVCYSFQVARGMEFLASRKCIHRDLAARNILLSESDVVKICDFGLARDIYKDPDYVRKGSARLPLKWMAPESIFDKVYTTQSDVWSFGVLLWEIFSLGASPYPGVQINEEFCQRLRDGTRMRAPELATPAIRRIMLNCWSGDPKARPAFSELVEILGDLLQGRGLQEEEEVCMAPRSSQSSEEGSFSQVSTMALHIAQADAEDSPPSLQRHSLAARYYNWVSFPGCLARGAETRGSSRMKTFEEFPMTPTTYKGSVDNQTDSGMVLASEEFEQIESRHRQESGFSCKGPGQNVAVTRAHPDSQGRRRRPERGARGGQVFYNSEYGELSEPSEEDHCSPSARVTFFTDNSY
T2 sequence (P17948 27-1338): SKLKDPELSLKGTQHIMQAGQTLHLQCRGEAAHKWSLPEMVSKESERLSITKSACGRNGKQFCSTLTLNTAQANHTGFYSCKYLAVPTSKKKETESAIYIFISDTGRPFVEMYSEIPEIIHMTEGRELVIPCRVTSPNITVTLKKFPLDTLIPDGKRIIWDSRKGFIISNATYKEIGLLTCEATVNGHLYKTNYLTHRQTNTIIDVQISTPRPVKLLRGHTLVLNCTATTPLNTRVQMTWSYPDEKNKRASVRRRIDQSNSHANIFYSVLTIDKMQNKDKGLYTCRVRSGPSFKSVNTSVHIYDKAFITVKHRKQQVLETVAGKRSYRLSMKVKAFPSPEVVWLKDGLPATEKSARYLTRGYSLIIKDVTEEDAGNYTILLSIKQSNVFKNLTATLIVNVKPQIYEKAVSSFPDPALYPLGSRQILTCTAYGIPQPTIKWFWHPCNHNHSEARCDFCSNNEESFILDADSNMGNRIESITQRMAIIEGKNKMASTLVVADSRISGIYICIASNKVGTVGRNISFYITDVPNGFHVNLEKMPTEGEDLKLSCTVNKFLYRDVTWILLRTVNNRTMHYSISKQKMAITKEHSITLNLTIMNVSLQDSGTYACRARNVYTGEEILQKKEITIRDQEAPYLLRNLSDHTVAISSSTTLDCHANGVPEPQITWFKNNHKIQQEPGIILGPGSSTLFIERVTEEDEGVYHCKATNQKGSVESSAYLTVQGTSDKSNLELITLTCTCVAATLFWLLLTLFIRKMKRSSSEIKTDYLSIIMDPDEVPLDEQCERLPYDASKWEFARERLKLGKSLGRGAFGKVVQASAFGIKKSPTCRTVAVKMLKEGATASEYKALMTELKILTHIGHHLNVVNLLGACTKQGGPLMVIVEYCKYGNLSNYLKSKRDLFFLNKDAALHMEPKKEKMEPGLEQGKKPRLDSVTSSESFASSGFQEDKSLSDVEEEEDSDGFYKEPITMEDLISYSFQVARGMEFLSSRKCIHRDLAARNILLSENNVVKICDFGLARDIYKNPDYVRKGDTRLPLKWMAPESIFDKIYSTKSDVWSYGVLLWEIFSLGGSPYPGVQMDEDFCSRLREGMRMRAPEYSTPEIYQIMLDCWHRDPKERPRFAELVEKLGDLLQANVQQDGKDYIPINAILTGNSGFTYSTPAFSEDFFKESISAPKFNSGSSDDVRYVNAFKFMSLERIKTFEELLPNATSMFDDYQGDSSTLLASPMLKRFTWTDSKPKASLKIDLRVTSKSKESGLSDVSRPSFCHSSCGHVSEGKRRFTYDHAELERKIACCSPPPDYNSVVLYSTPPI
T4 sequence (P10721 26-976): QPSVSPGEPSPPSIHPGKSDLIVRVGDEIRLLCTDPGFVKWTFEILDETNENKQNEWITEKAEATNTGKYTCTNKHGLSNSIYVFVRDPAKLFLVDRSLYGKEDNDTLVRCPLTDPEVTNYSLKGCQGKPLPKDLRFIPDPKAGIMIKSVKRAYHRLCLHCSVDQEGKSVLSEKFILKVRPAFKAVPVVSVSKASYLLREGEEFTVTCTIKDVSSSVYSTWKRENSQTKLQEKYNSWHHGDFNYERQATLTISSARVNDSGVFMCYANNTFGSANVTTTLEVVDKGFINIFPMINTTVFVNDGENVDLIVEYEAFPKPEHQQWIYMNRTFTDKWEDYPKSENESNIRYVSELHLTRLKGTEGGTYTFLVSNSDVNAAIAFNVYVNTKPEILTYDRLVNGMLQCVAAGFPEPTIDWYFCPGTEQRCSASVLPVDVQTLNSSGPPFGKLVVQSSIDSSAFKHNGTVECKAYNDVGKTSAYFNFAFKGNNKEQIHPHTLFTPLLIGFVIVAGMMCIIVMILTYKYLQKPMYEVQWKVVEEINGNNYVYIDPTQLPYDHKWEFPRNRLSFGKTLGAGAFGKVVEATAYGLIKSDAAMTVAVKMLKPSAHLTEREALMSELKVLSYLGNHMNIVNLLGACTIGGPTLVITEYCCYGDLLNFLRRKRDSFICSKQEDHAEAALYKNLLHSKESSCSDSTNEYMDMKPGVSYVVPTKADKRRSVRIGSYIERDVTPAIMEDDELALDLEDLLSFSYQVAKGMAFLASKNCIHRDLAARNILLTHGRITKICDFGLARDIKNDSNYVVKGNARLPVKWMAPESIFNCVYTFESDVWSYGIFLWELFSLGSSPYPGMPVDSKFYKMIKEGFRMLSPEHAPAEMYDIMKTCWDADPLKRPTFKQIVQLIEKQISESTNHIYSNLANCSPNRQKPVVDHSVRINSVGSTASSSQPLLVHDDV

Compound: COc1cc2nccc(Oc3ccc(NC(=O)NC4CC4)c(Cl)c3)c2cc1C(N)=O [lenvatinib, 4-[3-Chloro-4-(N’-cyclopropylureido)phenoxy]-7-methoxyquinoline-6-carboxamide]
IC50 (HUVECs [1]): 3.4 nM | ΔTV (%) lenvatinib (mg/kg) 1 [2, 15]: -7.5* % | ΔTV (%) lenvatinib (mg/kg) 3 [2, 16]: -42.2* % | ΔTV (%) lenvatinib (mg/kg) 10 [2, 17]: -65.4* % | ΔTV (%) lenvatinib (mg/kg) 30 [2, 18]: -72.0* % | ΔTV (%) lenvatinib (mg/kg) 100 [2, 19]: -78.6* % | IC50 (DU145 (Prostate)): 30.8 µM | IC50 (KP-1/VEGF transfectants): 19.6 µM | IC50 (MDA-MB 435 (Melanoma)): 24.2 µM | ΔTV (%) lenvatinib (mg/kg) 1 [3, 20]: 52.3* % | ΔTV (%) lenvatinib (mg/kg) 3 [3, 21]: 39.6* % | ΔTV (%) lenvatinib (mg/kg) 10 [3, 22]: 12.2* % | ΔTV (%) lenvatinib (mg/kg) 30 [3, 23]: 8.3* % | ΔTV (%) lenvatinib (mg/kg) 100 [3, 24]: -15.6* % | IC50 (A431 (Epidermoid)): 30.8 µM | ΔTV (%) lenvatinib (mg/kg) 1 [4, 15]: 55.7* % | ΔTV (%) lenvatinib (mg/kg) 3 [4, 16]: 56.9* % | ΔTV (%) lenvatinib (mg/kg) 10 [4, 17]: 40.2* % | ΔTV (%) lenvatinib (mg/kg) 30 [4, 18]: 21.2* % | ΔTV (%) lenvatinib (mg/kg) 100 [4, 19]: 25.7* % | ΔTV (%) lenvatinib (mg/kg) 1 [5, 20]: 41.7% | ΔTV (%) lenvatinib (mg/kg) 3 [5, 21]: 29.4* % | ΔTV (%) lenvatinib (mg/kg) 10 [5, 22]: 0.0* % | ΔTV (%) lenvatinib (mg/kg) 30 [5, 23]: -7.5* % | ΔTV (%) lenvatinib (mg/kg) 100 [5, 24]: -32.9* % | Ki (VEGFR3 (FLT4)): 0.71 nM | ΔTV (%) lenvatinib (mg/kg) 1 (H460 (Lung) xenograft; [20]): 65.4% | ΔTV (%) lenvatinib (mg/kg) 3 (H460 (Lung) xenograft; [21]): 34.9* % | ΔTV (%) lenvatinib (mg/kg) 10 (H460 (Lung) xenograft; [22]): 16.3* % | ΔTV (%) lenvatinib (mg/kg) 30 (H460 (Lung) xenograft; [23]): 16.4* % | ΔTV (%) lenvatinib (mg/kg) 100 (H460 (Lung) xenograft; [24]): -0.8* % | ΔTV (%) lenvatinib (mg/kg) 1 [6, 20]: 56.1* % | ΔTV (%) lenvatinib (mg/kg) 3 [6, 21]: 49.9* % | ΔTV (%) lenvatinib (mg/kg) 10 [6, 22]: 30.1* % | ΔTV (%) lenvatinib (mg/kg) 30 [6, 23]: 15.3* % | ΔTV (%) lenvatinib (mg/kg) 100 [6, 24]: 12.5* % | IC50 (Colo205 (Colon)): 27.5 µM | Ki (VEGFR1 (FLT1)): 1.3 nM | IC50 (MIApaca-II (Pancreas)): 33.8 µM | Ki (FGFR1): 22 nM | IC50 (HUVECs [7]): 2.7 nM | ΔTV (%) lenvatinib (mg/kg) 1 [8, 20]: 43.8* % | ΔTV (%) lenvatinib (mg/kg) 3 [8, 21]: 23.1* % | ΔTV (%) lenvatinib (mg/kg) 10 [8, 22]: 12.8* % | ΔTV (%) lenvatinib (mg/kg) 30 [8, 23]: -4.5* % | ΔTV (%) lenvatinib (mg/kg) 100 [8, 24]: -21.3* % | Antitumor activity, SEKI model (SEKI model): no effect | IC50 (SK-OV-3 (Ovary)): 26.4 µM | IC50 (H460 (Lung)): 26.3 µM | Ki (KIT): 11 nM | IC50 (HUVECs [9]): 590 nM | Ki (FGFR3): 15 nM | IC50 (HUVECs [10]): 410 nM | Ki (FGFR2): 8.2 nM | Losses of body weights ([11]; 100 mg/kg twice daily for 4 weeks, observed in 3 out of 7 models): < 10% | MTD at 4 weeks ([11]; mouse, in vivo, oral, tumor xenograft models, read-out: Maximum tolerated dose (MTD)): 100 mg/kg

Inhibition of FGF-driven in vivo angiogenesis, KP-1/FGF DAS assay [12]: did not inhibit | Antiangiogenic activity, KP-1/VEGF DAS model [14]: selective antiangiogenic activity
Compound: CNC(=O)c1cc(Oc2ccc(NC(=O)Nc3ccc(Cl)c(C(F)(F)F)c3)cc2)ccn1 [sorafenib, reference compound]
IC50 [13]: 2000 nM
